Our source for the MIC and Ratio values is ChEMBL document CHEMBL1938310, “Discovery of novel antitubercular 1,5-dimethyl-2-phenyl-4-([5-(arylamino)-1,3,4-oxadiazol-2-yl]methylamino)-1,2-dihydro-3H-pyrazol-3-one analogues” (Bioorg Med Chem Lett, 2012).

Converted amounts (≈) assume the structure as drawn.

The test system of test [1] is Mycobacterium tuberculosis. Description: Antimycobacterial activity against isoniazid-resistant Mycobacterium tuberculosis by two fold agar dilution method. It counts as functional. On the technique in general: In agar dilution, organisms are placed on agar that contains the substance at set levels.
For test [2], the system named is Mycobacterium tuberculosis. The test can be described thus: Ratio of MIC for isoniazid-resistant Mycobacterium tuberculosis to MIC for Mycobacterium tuberculosis H37Rv. Format: functional.

A word on the MIC: it is the lowest concentration found to suppress growth. The low end stands for inhibition by little substance, the high end for a need for much substance. `Cc1c(NCc2nnc(Nc3ccc(F)c(Cl)c3)o2)c(=O)n(-c2ccccc2)n1C`: in test [1], 10 µg/mL (≈ 23.3 µM) was the least that counted as inhibitory (MIC). `Cc1c(NCc2nnc(Nc3ccc(F)cc3)o2)c(=O)n(-c2ccccc2)n1C`: the lowest concentration to inhibit growth in test [1] (MIC) was 3.12 µg/mL (≈ 7.91 µM). Also, the Ratio in test [2] was 4.

`Cc1c(NCc2nnc(Nc3ccc(Cl)cc3)o2)c(=O)n(-c2ccccc2)n1C` displayed an MIC in test [1] of 10 µg/mL (≈ 24.3 µM). Still for that read-out and setting: to `Cc1c(NCc2nnc(Nc3ccc(Br)cc3)o2)c(=O)n(-c2ccccc2)n1C` belongs 12.5 µg/mL (≈ 27.5 µM); to `Cc1c(NCc2nnc(Nc3ccccc3Cl)o2)c(=O)n(-c2ccccc2)n1C`, more than 12.5 µg/mL; to `Cc1c(Cl)cccc1Nc1nnc(CNc2c(C)n(C)n(-c3ccccc3)c2=O)o1`, more than 12.5 µg/mL. The same measure, in the same setting: to `Cc1c(NCc2nnc(Nc3ccc([N+](=O)[O-])cc3)o2)c(=O)n(-c2ccccc2)n1C` belongs 6.25 µg/mL (≈ 14.8 µM); to `Cc1ccc(Nc2nnc(CNc3c(C)n(C)n(-c4ccccc4)c3=O)o2)cc1`, more than 12.5 µg/mL.

`COc1ccc(Nc2nnc(CNc3c(C)n(C)n(-c4ccccc4)c3=O)o2)cc1` displayed an MIC in test [1] of more than 12.5 µg/mL.

`Cc1ccc(Nc2nnc(CNc3c(C)n(C)n(-c4ccccc4)c3=O)o2)c(C)c1` displayed an MIC in test [1] of more than 12.5 µg/mL.

Take `Cc1cccc(C)c1Nc1nnc(CNc2c(C)n(C)n(-c3ccccc3)c2=O)o1`: the MIC in test [1] was more than 12.5 µg/mL.

Compound `Cc1c(NCc2nnc(Nc3ccc(O)cc3)o2)c(=O)n(-c2ccccc2)n1C` returned an MIC in test [1] of 12.5 µg/mL (≈ 31.9 µM). Same read-out and setting: to `Cc1c(NCc2nnc(Nc3ccc(S(N)(=O)=O)cc3)o2)c(=O)n(-c2ccccc2)n1C` belongs 12.5 µg/mL (≈ 27.4 µM).

`Cc1c(NCc2nnc(Nc3ccccc3)o2)c(=O)n(-c2ccccc2)n1C` returned a minimum inhibitory concentration (MIC) in test [1] of more than 12.5 µg/mL.

In test [1], `NNC(=O)c1ccncc1` [ISONIAZID] registered an MIC of 12.5 µg/mL (≈ 91.1 µM).
